# Measurements published in US20160375088A1, “CARDIOLIPIN-TARGETED PEPTIDES INHIBIT BETA-AMYLOID OLIGOMER TOXICITY” (priority 2013, published 2016).
# Assays:
# [1] = target: T1, Aβ1-42-Cardiolipin-Cu^2+ complex (Homo sapiens, UniProt P05067); test: Aβ1-42-Cardiolipin-Cu2+ complex oxygenase activity (Amplex Red, no H2O2); assay type: biochemical; conditions: for increase in Aβ1-42-mediated oxygenase activity compared to the non-metal treated control: 10 μM metal salt incubated with cardiolipin and Aβ1-42 oligomers; for reduction in Aβ1-42-mediated oxygenase activity compared to untreated controls: 10 μM peptide, 30 μM CuCl2, 50 μM Amplex Red; for reduction in Aβ1-42-mediated oxygenase activity compared to untreated controls / inhibition of Aβ1-42-mediated oxygenase activity compared to untreated controls: 30 μM TLCL; for inhibition of Aβ1-42-mediated oxygenase activity compared to untreated controls: 100 μM peptide; for inhibition of Cu2+-dependent stimulation of Aβ1-42-mediated oxygenase activity, dose dependence: FIG. 4B, varying peptide concentrations
# T1 construct: purchased Life Technologies
# T1 sequence (P05067 672-713 limits assumed, one chain of several): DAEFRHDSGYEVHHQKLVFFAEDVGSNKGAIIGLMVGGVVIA
# Procedure: Oligomerization of Aβ1-42 Peptide: Aβ1-42 peptide was dissolved in 1.5 mL of a 1:1 water/acetonitrile solution. 500 μL aliquots were frozen in a methanol/dry ice cooling bath and then lyophilized. Once lyophilized, each aliquot was dissolved in 20 μL DMSO. The aliquots were then vortexed, centrifuged, and sonicated in a water bath at room temperature. 200 μL of filtered 1×PBS and 20 μL of 2% SDS were subsequently added. The Aβ1-42 peptide solution was incubated at 37° C. for 6 hours. 580 μL of water was subsequently added to the Aβ1-42 peptide solution, followed by a 16 hour incubation at 37° C. prior to being stored at 4° C.
# Measurement of Aβ1-42-Cardiolipin-Cu^2+ Complex Oxygenase Activity:
# Aβ1-42-Cardiolipin-Cu^2+ oxygenase activity was measured using the Amplex Red kit. Amplex Red is a dye that reacts with H2O2 in a 1:1 stoichiometric ratio to produce a highly fluorescent derivative called resorufin (λex/λem=570/585 nm). The presence of peroxidase activity in an Amplex reaction lacking H2O2 is an indicator of oxygenase activity resulting from the reaction between the Amplex Red reagent and oxygen in the solution. All experiments were conducted in the absence of H2O2. A measurement was immediately taken after the introduction of Amplex Red, the last reagent that was added to the reaction. The reaction was allowed to proceed for an additional 10 minutes. Continuous time course data over the 10-minute period was obtained using a microplate spectrofluorometer (Molecular Devices, Sunnyvale, Calif.).
# Aβ1-42 oligomers [2] = target: T2, Aβ1-42 oligomers (Homo sapiens, UniProt P05067); test: Transmission electron microscopy of Aβ fibril formation
# T2 sequence (P05067 672-713 limits assumed): as the sequence (P05067 672-713 limits assumed, one chain of several) above
# Aβ1-42 oligomers [3] = target: T2, Aβ1-42 oligomers; test: Fluorescence emission spectra: interaction of peptide with Aβ1-42 oligomers; assay type: binding; set-up: purchased Life Technologies; conditions: for shift of emission on contact with Aβ oligomers: 1 μM Aβ oligomers; for emission maximum (λmax) with Aβ oligomers: 20 mM Hepes pH 7.4, 1 μM Aβ oligomers
# Text: Interaction of Aromatic-cationic Peptides with Aβ1-42 Oligomers:
# D-Arg-2′,6′-Dmt-Lys-Ald-NH2 ([ald]SS-31) is an aladan (ald) containing derivative of D-Arg-2′,6′-Dmt-Lys-Phe-NH2 (SS-31). See Birk et al., J Am Soc Nephrol. 24(8): 1250-1261 (2013). […] Thus, interaction between D-Arg-2′,6′-Dmt-Lys-Ald-NH2 ([ald]SS-31) and phospholipids causes an observable shift in the fluorescence spectra of the peptide. See Birk et al., J Am Soc Nephrol. 24(8): 1250-1261 (2013). […] The fluorophore aladan was used as a control. All experiments were conducted in 20 mM Hepes (pH 7.4) so as to replicate an environment with physiological pH.
# Aβ1-42 oligomers [4] = target: T2, Aβ1-42 oligomers; test: Turbidity (right-angle light scattering at 633 nm) of peptides with Aβ1-42 oligomers; set-up: purchased Life Technologies; conditions: 40 μM Aβ, Hepes pH 7.4
# Procedure: Turbidity Measurements of Aromatic-Cationic Peptides Complexed with Aβ1-42 Oligomers: The turbidity of solutions containing aromatic-cationic peptides and/or Aβ1-42 oligomers was measured via right-angle scattering at λ=633 nm (Hitachi F-4500 Fluorescent Spectrophotometer). All experiments were conducted in Hepes (pH 7.4) and scanned immediately.
# [5] = 800 nM Aβ oligomers, 30 μM CuCl2
Compound,increase in Aβ1-42-mediated oxygenase activity compared to the non-metal treated control [1],shift of emission on contact with Aβ oligomers (Aβ1-42 oligomers [3]),"emission maximum (λmax) with Aβ oligomers (Aβ1-42 oligomers [3]; 1 μM, λex=360 nm)",reduction in Aβ1-42-mediated oxygenase activity compared to untreated controls ([1]; 800 nM Aβ oligomers),"inhibition of Aβ1-42-mediated oxygenase activity compared to untreated controls [1, 5]","inhibition of Cu2+-dependent stimulation of Aβ1-42-mediated oxygenase activity, dose dependence [1]",change in light scattering (turbidity) compared to Aβ1-42 oligomer control sample (Aβ1-42 oligomers [4]),light scattering (Aβ1-42 oligomers [4]),further results
"[Cl][Cu][Cl] [CuCl2, copper (II) chloride, reference compound]",> 500%,,,,,,,,
"O=[N+]([O-])[O-].O=[N+]([O-])[O-].[Cu+2] [Cu(NO3)2, copper (II) nitrate hydrate, reference compound]",500%,,,,,,,,
"D-Arg-2′,6′-Dmt-Lys-Ald-NH2 [[ald]SS-31]",,blue shift,465 nm,90%,complete inhibition,dose dependent,six-fold increase,,"incubation time resulting in formation of Aβ fibrils (Aβ1-42 oligomers [2]; natural fibrillation takes at least seven days): 25 min; increase in the rate of fibril formation (Aβ1-42 oligomers [2]; versus natural fibrillation): 400 fold; emission maximum (λmax) before Aβ oligomers (Aβ1-42 oligomers [3]; 1 μM, λex=360 nm, 20 mM Hepes pH 7.4, no Aβ): 535 nm"
"CCCCCC=CCC=CCCCCCCCC(=O)OCC(COP(=O)(O)OCC(O)COP(=O)(O)OCC(COC(=O)CCCCCCCC=CCC=CCCCCC)OC(=O)CCCCCCCC=CCC=CCCCCC)OC(=O)CCCCCCCC=CCC=CCCCCC (stereo not drawn) [TLCL, 1,1′,2,2′-tetralinoleoyl cardiolipin, reference compound]",,,,,,,,,"stimulation of Aβ1-42-mediated oxygenase activity in the presence of Cu2+ ions by phospholipid [1, 5]: capable of stimulating"
"D-Arg-2′,6′-Dmt-Lys-Phe-NH2 [SS-31]",,,,90%,complete inhibition,dose dependent,no change in turbidity,about 180 RFUs,
"CN(C)c1ccc2cc(C(=O)CC(N)C(=O)O)ccc2c1 (stereo not drawn) [Ald, β-(6′-dimethylamino-2′-naphthoyl)alanine, reference compound]",,no shift,535 nm,,,,no change in turbidity,about 180 RFUs,
